Measurements: PubChem BioAssay AID248 (DTP/NCI, 2004)
Where “and” joins values, the source holds several entries; their conditions need not be identical. Equal entries are not always repeated. Toxic doses and inconclusive results are not listed. No stated cut-off is given here; in the data, active means T/C of 150% or more; inactive means T/C below 125%.

Tested on: L1210 leukemia ip in BDF1 mice, survival T/C
Experiment: NCI In Vivo Anticancer Drug Screen. Data for tumor model L1210 Leukemia (intraperitoneal) in B6D2F1 (BDF1) mice
Details: higher = longer survival
How it was run: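 Read-out is survival time, reported as the treated-group measurement over the vehicle-control measurement.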

[1] = endpoint: mean survival time, dose: 100.0 mg/kg/injection, schedule: Q01DX009 (ip), vehicle: Klucel (hydroxypropylcellulose) (HPC)
[2] = endpoint: mean survival time, dose: 200.0 mg/kg/injection, schedule: Q01DX009 (ip), vehicle: Klucel (hydroxypropylcellulose) (HPC)
[3] = endpoint: mean survival time, dose: 400.0 mg/kg/injection, schedule: Q01DX009 (ip), vehicle: Klucel (hydroxypropylcellulose) (HPC)
[4] = endpoint: mean survival time, dose: 100.0 mg/kg/injection, schedule: Q01DX009 (ip), vehicle: saline with Tween-80
[5] = endpoint: mean survival time, dose: 100.0 mg/kg/injection, schedule: Q04DX003 (ip), vehicle: saline with Tween-80
[6] = endpoint: mean survival time, dose: 200.0 mg/kg/injection, schedule: Q01DX009 (ip), vehicle: saline with Tween-80
[7] = endpoint: mean survival time, dose: 400.0 mg/kg/injection, schedule: Q01DX009 (ip), vehicle: saline with Tween-80
[8] = endpoint: mean survival time, dose: 100.0 mg/kg/injection, schedule: Q04DX003 (ip), vehicle: Klucel (hydroxypropylcellulose) (HPC)
[9] = endpoint: mean survival time, dose: 200.0 mg/kg/injection, schedule: Q04DX003 (ip), vehicle: Klucel (hydroxypropylcellulose) (HPC)
[10] = endpoint: mean survival time, dose: 400.0 mg/kg/injection, schedule: Q04DX003 (ip), vehicle: Klucel (hydroxypropylcellulose) (HPC)
[11] = endpoint: mean survival time, dose: 100.0 mg/kg/injection, schedule: Q01DX001 (ip), vehicle: carboxymethylcellulose (CMC)
[12] = endpoint: mean survival time, dose: 200.0 mg/kg/injection, schedule: Q01DX001 (ip), vehicle: carboxymethylcellulose (CMC)
[13] = endpoint: mean survival time, dose: 400.0 mg/kg/injection, schedule: Q01DX001 (ip), vehicle: carboxymethylcellulose (CMC)
[14] = endpoint: mean survival time, dose: 200.0 mg/kg/injection, schedule: Q04DX003 (ip), vehicle: saline with Tween-80

Measured: T/C

COc1cc(NS(=O)(=O)c2ccc(C(C)=O)cc2)nc(OC)n1
inactive: [1] 94 % of control | [2] 102 % of control | [3] 98 % of control

CC1CC(=O)C=C(c2ccccc2)O1 (stereo not drawn)
inactive: endpoint: mean survival time, dose: 75.0 mg/kg/injection, schedule: Q01DX009 (ip), vehicle: Klucel (hydroxypropylcellulose) (HPC) 101 % of control | endpoint: mean survival time, dose: 150.0 mg/kg/injection, schedule: Q01DX009 (ip), vehicle: Klucel (hydroxypropylcellulose) (HPC) 101 % of control

CCC(N)C(O)C(Cl)(Cl)Cl (stereo not drawn)
inactive: [4] 103 % of control | [5] 89 % of control | [6] 98 % of control | [7] 109 % of control

CCCCOP(=O)(OCCCC)C(c1ccccc1)(c1ccccc1)c1ccccc1
inactive: [8] 91 % of control | [9] 94 % of control | [10] 96 % of control

CCOC(=O)c1[nH]c(C)nc1/N=N/N(C)C
inactive: endpoint: median survival time, dose: 25.0 mg/kg/injection, schedule: Q01DX009 (ip), vehicle: Klucel (hydroxypropylcellulose) (HPC) 116 % of control

COc1ccc([N+](=O)[O-])c(C=O)c1
inactive: endpoint: mean survival time, dose: 100.0 mg/kg/injection, schedule: Q01DX009 (ip), vehicle: saline 101 % of control | endpoint: mean survival time, dose: 100.0 mg/kg/injection, schedule: Q04DX003 (ip), vehicle: saline 97 % of control | endpoint: mean survival time, dose: 200.0 mg/kg/injection, schedule: Q01DX009 (ip), vehicle: saline 98 % of control | endpoint: mean survival time, dose: 200.0 mg/kg/injection, schedule: Q04DX003 (ip), vehicle: saline 100 % of control | endpoint: mean survival time, dose: 400.0 mg/kg/injection, schedule: Q01DX009 (ip), vehicle: saline 101 % of control | endpoint: mean survival time, dose: 400.0 mg/kg/injection, schedule: Q04DX003 (ip), vehicle: saline 103 % of control

CCSc1ncnc2nc[nH]c12
inactive: endpoint: mean survival time, dose: 75.0 mg/kg/injection, schedule: Q01DX001 (ip), vehicle: acetone 105 % of control | endpoint: mean survival time, dose: 150.0 mg/kg/injection, schedule: Q01DX001 (ip), vehicle: acetone 105 % of control | endpoint: mean survival time, dose: 300.0 mg/kg/injection, schedule: Q01DX001 (ip), vehicle: acetone 105 % of control

O=C(C[N+]12CN3CN(CN(C3)C1)C2)c1ccc(Cl)cc1
inactive: endpoint: mean survival time, dose: 40.0 mg/kg/injection, schedule: Q01DX Z (ip), vehicle: saline 98 % of control | endpoint: mean survival time, dose: 44.0 mg/kg/injection, schedule: Q01DX Z (ip), vehicle: carboxymethylcellulose (CMC) 109 % of control | endpoint: mean survival time, dose: 50.0 mg/kg/injection, schedule: Q01DX001 (ip), vehicle: carboxymethylcellulose (CMC) 107 % of control | endpoint: mean survival time, dose: 60.0 mg/kg/injection, schedule: Q01DX Z (ip), vehicle: saline 107 % of control | endpoint: mean survival time, dose: 73.0 mg/kg/injection, schedule: Q01DX Z (ip), vehicle: carboxymethylcellulose (CMC) 110 % of control | endpoint: mean survival time, dose: 90.0 mg/kg/injection, schedule: Q01DX Z (ip), vehicle: saline 109 % of control | [11] 102 % of control | endpoint: mean survival time, dose: 110.0 mg/kg/injection, schedule: Q01DX Z (ip), vehicle: carboxymethylcellulose (CMC) 113 % of control | endpoint: mean survival time, dose: 135.0 mg/kg/injection, schedule: Q01DX Z (ip), vehicle: saline 109 % of control | endpoint: mean survival time, dose: 165.0 mg/kg/injection, schedule: Q01DX Z (ip), vehicle: carboxymethylcellulose (CMC) 115 % of control | [12] 100 % of control | endpoint: mean survival time, dose: 202.5 mg/kg/injection, schedule: Q01DX Z (ip), vehicle: saline 112 % of control | endpoint: mean survival time, dose: 303.7 mg/kg/injection, schedule: Q01DX Z (ip), vehicle: saline 113 % of control | [13] 107 % of control

CCCCC(=O)N/N=C/c1cccc(OC)c1OC
inactive: [11] 92 % of control | [12] 92 % of control | [13] 101 % of control

Cc1ccccc1NC(=O)Nc1ccccc1F
inactive: [1] 99 % of control | [8] 96 % of control | [2] 99 % of control | [9] 103 % of control | [3] 104 % of control | [10] 110 % of control

OC(C#Cc1ccccc1)c1ccccc1 (stereo not drawn)
inactive: endpoint: mean survival time, dose: 50.0 mg/kg/injection, schedule: Q01DX009 (ip), vehicle: saline with Tween-80 105 % of control | [4] 100 % of control | [5] 95 % of control | [6] 88 % of control and 89 % of control | [14] 101 % of control | [7] 98 % of control

CCN(Cc1ccccc1)C(=S)NC1CCCCC1
inactive: endpoint: mean survival time, dose: 100.0 mg/kg/injection, schedule: Q04DX002 (ip), vehicle: saline 96 % of control | endpoint: mean survival time, dose: 200.0 mg/kg/injection, schedule: Q04DX002 (ip), vehicle: saline 96 % of control | endpoint: mean survival time, dose: 400.0 mg/kg/injection, schedule: Q04DX002 (ip), vehicle: saline 100 % of control

O=[Se](c1ccccc1)c1ccccc1
inactive: endpoint: mean survival time, dose: 25.0 mg/kg/injection, schedule: Q04DX002 (ip), vehicle: Klucel (hydroxypropylcellulose) (HPC) 103 % of control | endpoint: mean survival time, dose: 50.0 mg/kg/injection, schedule: Q04DX002 (ip), vehicle: Klucel (hydroxypropylcellulose) (HPC) 94 % of control | endpoint: mean survival time, dose: 100.0 mg/kg/injection, schedule: Q04DX002 (ip), vehicle: Klucel (hydroxypropylcellulose) (HPC) 87 % of control

CC(=O)NNC(=O)c1cccnc1
inactive: endpoint: mean survival time, dose: 100.0 mg/kg/injection, schedule: Q01DX001 (ip), vehicle: water 95 % of control | endpoint: mean survival time, dose: 100.0 mg/kg/injection, schedule: Q01DX009 (ip), vehicle: water 95 % of control | endpoint: mean survival time, dose: 200.0 mg/kg/injection, schedule: Q01DX001 (ip), vehicle: water 104 % of control | endpoint: mean survival time, dose: 200.0 mg/kg/injection, schedule: Q01DX009 (ip), vehicle: water 101 % of control | endpoint: mean survival time, dose: 400.0 mg/kg/injection, schedule: Q01DX001 (ip), vehicle: water 101 % of control | endpoint: mean survival time, dose: 400.0 mg/kg/injection, schedule: Q01DX009 (ip), vehicle: water 116 % of control | endpoint: mean survival time, dose: 800.0 mg/kg/injection, schedule: Q01DX009 (ip), vehicle: water 116 % of control

CCOC(=O)Nc1cc2c(nnn2C(c2ccccc2)c2ccccc2)c(N)n1
inactive: endpoint: mean survival time, dose: 5.0 mg/kg/injection, schedule: Q01DX001 (ip), vehicle: other 112 % of control | endpoint: mean survival time, dose: 10.0 mg/kg/injection, schedule: Q01DX001 (ip), vehicle: other 98 % of control | endpoint: mean survival time, dose: 20.0 mg/kg/injection, schedule: Q01DX001 (ip), vehicle: other 93 % of control | endpoint: mean survival time, dose: 40.0 mg/kg/injection, schedule: Q01DX001 (ip), vehicle: other 91 % of control | endpoint: mean survival time, dose: 80.0 mg/kg/injection, schedule: Q01DX001 (ip), vehicle: other 86 % of control

CCOc1nc(N)c(C(N)=O)cc1C#N
inactive: endpoint: mean survival time, dose: 100.0 mg/kg/injection, schedule: Q04DX003 (ip), vehicle: saline sonified 98 % of control | endpoint: mean survival time, dose: 200.0 mg/kg/injection, schedule: Q04DX003 (ip), vehicle: saline sonified 105 % of control

COc1ccc2c(c1)CCC1=C2CCC2C1C(=O)CCC21OCCCO1 (stereo not drawn)
inactive: [8] 100 % of control | [9] 96 % of control | [10] 96 % of control

COC(OC)C1C=CC=CC=C1
inactive: [6] 95 % of control

O=C(Nc1cc(NC(=O)Oc2ccccc2)cc([N+](=O)[O-])c1)Oc1ccccc1
inactive: [5] 96 % of control | [14] 103 % of control | endpoint: mean survival time, dose: 400.0 mg/kg/injection, schedule: Q04DX003 (ip), vehicle: saline with Tween-80 88 % of control
